Data: US4942155A, “Biosynthetic anthracyclines related to daunorubicin” (Farmitalia Carlo Erba S.p.A., priority 1986, dated 1990)
Converted amounts (≈) assume the structure as drawn.

Experiments:
P388/S leukemia cells = assay: In vitro cytotoxicity on P388 leukemia cells sensitive to doxorubicin; format: cell-based; conditions: for IC50: Mus musculus, exposed for 48 hr then plated, read-out: ID50 (the source's name)
Text: (§1) The cytotoxic activity of the new anthracyclines, FCE 24366 and FCE 24367 have been tested in vitro on cultured HeLa cells, and P388 leukemia cells sensitive (P 388/S) or resistant (P 388/R) to doxorubicin.
(§2) ^(b) Cells are exposed to the drugs for 48 hr then plated

[1] = test system: Staphylococcus aureus 153; assay: In vitro MIC, standard tube dilution; format: cell-based
Text: (§3) The in vitro minimum inhibitory concentration (MIC) of FCE 24366, FCE 24367 and daunorubicin, determined for some microorganism using the standard tube dilution procedure, are reported in Table 4.

[2] = test system: Streptococcus faecalis ATCC 8043; assay: In vitro MIC, standard tube dilution; format: cell-based; conditions: Enterococcus faecalis, ATCC8043
Text: as §3

Escherichia coli 026B6 = assay: In vitro MIC, standard tube dilution; format: cell-based
Text: as §3

[3] = test system: Klebeiella pneumoniae ATCC 10031; assay: In vitro MIC, standard tube dilution; format: cell-based
Text: as §3

Sarcina lutea ATCC 9341 = assay: In vitro MIC, standard tube dilution; format: cell-based; conditions: Micrococcus luteus, ATCC9341
Text: as §3

[4] = test system: Streptococcus pyogenes ATCC 12384; assay: In vitro MIC, standard tube dilution; format: cell-based; conditions: ATCC12384
Text: as §3

[5] = test system: Escherichia coli ATCC 11303; assay: In vitro MIC, standard tube dilution; format: cell-based; conditions: ATCC11303
Text: as §3

[6] = test system: Staphylococcus aureus 209P; assay: In vitro MIC, standard tube dilution; format: cell-based
Text: as §3

[7] = test system: Proteus morganii ATCC 25830; assay: In vitro MIC, standard tube dilution; format: cell-based; conditions: Morganella morganii, ATCC25830
Text: as §3

P388 ascitic leukemia = assay: In vivo activity against P388 ascitic leukemia in mice; conditions: for Toxic deaths: macroscopic autopic findings; for MST (T/C %): median survival time, % of untreated controls; for in vivo activity compared with daunorubicin: P388 ascitic leukemia in mice, at dosage levels several times lower
Method: ^(a) Mice were treated i.p. on day 1 after tumor cell inoculation.
^(b) Injected as 1:9 Tween 80:water suspension.
(§4) ^(c) Median survival time expressed as percentage of untreated
^(d) Evaluated on the basis of macroscopic autopic findings.

P388/R leukemia cells = assay: In vitro cytotoxicity on P388 leukemia cells resistant to doxorubicin; format: cell-based; conditions: for IC50: Mus musculus, exposed for 48 hr then plated, read-out: ID50 (the source's name); for activity on P 388/R cell line: cross-resistant to most anthracyclines
Text: as §1, §2

HeLa cells = assay: In vitro cytotoxicity on cultured HeLa cells; format: cell-based; conditions: for IC50: Homo sapiens, exposed for 24 hr then plated, read-out: ID50 (the source's name)
Text: as §1
^(a) Cells are exposed to the drugs for 24 hr then plated

Gross leukemia = assay: In vivo activity against Gross leukemia in mice; conditions: for Toxic deaths: macroscopic autoptic findings; for MST (T/C %): median survival time, % of untreated controls
Method: ^(a) Mice were treated i.v. on day 1 after tumor cell i.v.
^(b) Injected as 1:9 Tween 80:water suspension
as §4
^(d) Evaluated on the basis of macroscopic autoptic findings.

[8] = Stability in acidic media; format: physicochemical
Solubility = format: physicochemical
[9] = acetone, dioxane, N,N-dimethylformamide, N,N-dimethylsulfoxide
[10] = chloroform, dichloromethane, ethyl acetate, lower alcohols
[11] = ethyl ether, n-hexane, petroleum ether and water

Row | Structure (SMILES) | IC50 (P388/S leukemia cells) | MIC [1] | MIC [2] | MIC (Escherichia coli 026B6) | MIC [3] | MIC (Sarcina lutea ATCC 9341) | MIC [4] | MIC [5] | MIC [6] | MIC [7] | IC50 (P388/R leukemia cells) | IC50 (HeLa cells) | cytotoxic dosage level compared with daunorubicin (P388/S leukemia cells) | stability [8] | in vivo activity compared with daunorubicin (P388 ascitic leukemia) | solubility (Solubility; [9]) | solubility (Solubility; [10]) | solubility (Solubility; [11]) | activity on P 388/R cell line (P388/R leukemia cells) | cytotoxic dosage level compared with daunorubicin (HeLa cells) | further results
1 | COc1cccc2c1C(=O)c1c(O)c3c(c(O)c1C2=O)C[C@@](O)(C(C)=O)C[C@@H]3O[C@H]1C[C@H](N)[C@H](O)[C@H](C)O1 [Daunorubicin, daunorubicin] | 9.5 ng/mL (≈ 0.018 µM) | 25 µg/mL (≈ 47.4 µM) | > 100 µg/mL | 6.25 µg/mL (≈ 11.8 µM) | > 100 µg/mL | 1.56 µg/mL (≈ 2.96 µM) | 3.12 µg/mL (≈ 5.91 µM) | 3.12 µg/mL (≈ 5.91 µM) | 6.25 µg/mL (≈ 11.8 µM) | > 100 µg/mL | 0.75 µg/mL (≈ 1.42 µM) | 19 ng/mL (≈ 0.036 µM) |  |  |  |  |  |  |  |  | Toxic deaths (P388 ascitic leukemia; 2.9 mg/Kg i.p. on day 1): 0/10; MST (T/C %) (P388 ascitic leukemia; 2.9 mg/Kg i.p. on day 1): 160%; Toxic deaths (P388 ascitic leukemia; 4.4 mg/Kg i.p. on day 1): 7/10; MST (T/C %) (P388 ascitic leukemia; 4.4 mg/Kg i.p. on day 1): 150%; Toxic deaths (Gross leukemia; 10 mg/Kg i.v. on day 1): 0/9; MST (T/C %) (Gross leukemia; 10 mg/Kg i.v. on day 1): 183%; Toxic deaths (Gross leukemia; 15 mg/Kg i.v. on day 1): 0/9; MST (T/C %) (Gross leukemia; 15 mg/Kg i.v. on day 1): 217%; Toxic deaths (Gross leukemia; 22.5 mg/Kg i.v. on day 1): 9/9; MST (T/C %) (Gross leukemia; 22.5 mg/Kg i.v. on day 1): 83%
2 | COc1cccc2c1C(=O)c1c(O)c3c(c(O)c1C2=O)C[C@@](O)(C(C)=O)C[C@@H]3O[C@H]1C[C@@H]2NC(C3C(=O)N(C)C(=O)N(C)C3=O)C(C)OC(CC(C)O)O[C@@H]2[C@H](C)O1 (some centres unmarked) [FCE 24366] | 0.036 ng/mL (≈ 4.45e-05 µM) | 0.78 µg/mL (≈ 0.963 µM) | 12.5 µg/mL (≈ 15.4 µM) | 1.56 µg/mL (≈ 1.93 µM) | 0.78 µg/mL (≈ 0.963 µM) | 0.19 µg/mL (≈ 0.235 µM) | 3.12 µg/mL (≈ 3.85 µM) | 0.39 µg/mL (≈ 0.482 µM) | 0.78 µg/mL (≈ 0.963 µM) | 12.5 µg/mL (≈ 15.4 µM) | 0.0012 µg/mL (≈ 0.00148 µM) | 0.09 ng/mL (≈ 0.000111 µM) | several times lower than those of daunorubicin | unstable | as active as daunorubicin | soluble | slightly soluble | barely soluble or insoluble | high activity | several times lower than those of daunorubicin | Toxic deaths (P388 ascitic leukemia; 0.012 mg/Kg i.p. on day 1): 0/10; MST (T/C %) (P388 ascitic leukemia; 0.012 mg/Kg i.p. on day 1): 130%; Toxic deaths (P388 ascitic leukemia; 0.025 mg/Kg i.p. on day 1): 0/10; MST (T/C %) (P388 ascitic leukemia; 0.025 mg/Kg i.p. on day 1): 135%; Toxic deaths (P388 ascitic leukemia; 0.05 mg/Kg i.p. on day 1): 0/10; MST (T/C %) (P388 ascitic leukemia; 0.05 mg/Kg i.p. on day 1): 150%; Toxic deaths (P388 ascitic leukemia; 0.1 mg/Kg i.p. on day 1): 1/10; MST (T/C %) (P388 ascitic leukemia; 0.1 mg/Kg i.p. on day 1): 165%; Toxic deaths (Gross leukemia; 0.13 mg/Kg i.v. on day 1): 0/9; MST (T/C %) (Gross leukemia; 0.13 mg/Kg i.v. on day 1): 117%; Toxic deaths (Gross leukemia; 0.20 mg/Kg i.v. on day 1): 0/8; MST (T/C %) (Gross leukemia; 0.20 mg/Kg i.v. on day 1): 192%; Toxic deaths (Gross leukemia; 0.30 mg/Kg i.v. on day 1): 2/9; MST (T/C %) (Gross leukemia; 0.30 mg/Kg i.v. on day 1): 150%; activity against Gross leukemia compared with daunorubicin (Gross leukemia; Gross leukemia in mice): activity comparable with that of daunorubicin at remarkably lower dosages
3 | COc1cccc2c1C(=O)c1c(O)c3c(c(O)c1C2=O)C[C@@](O)(C(C)=O)C[C@@H]3O[C@H]1C[C@@H]2NC(C3C(=O)NC(=S)NC3=O)C(C)OC(CC(C)O)O[C@@H]2[C@H](C)O1 (some centres unmarked) [FCE 24367] | 0.003 ng/mL (≈ 3.76e-06 µM) | 6.25 µg/mL (≈ 7.83 µM) | 100 µg/mL (≈ 125 µM) | 12.5 µg/mL (≈ 15.7 µM) | 25 µg/mL (≈ 31.3 µM) | 0.78 µg/mL (≈ 0.978 µM) | 6.25 µg/mL (≈ 7.83 µM) | 3.12 µg/mL (≈ 3.91 µM) | 6.25 µg/mL (≈ 7.83 µM) | 100 µg/mL (≈ 125 µM) | 0.0038 µg/mL (≈ 0.00476 µM) | 0.7 ng/mL (≈ 0.000877 µM) | several times lower than those of daunorubicin | unstable | as active as daunorubicin | soluble | slightly soluble | barely soluble or insoluble | high activity | several times lower than those of daunorubicin | Toxic deaths (P388 ascitic leukemia; 0.3 mg/Kg i.p. on day 1): 0/10; MST (T/C %) (P388 ascitic leukemia; 0.3 mg/Kg i.p. on day 1): 145%; Toxic deaths (P388 ascitic leukemia; 0.45 mg/Kg i.p. on day 1): 1/10; MST (T/C %) (P388 ascitic leukemia; 0.45 mg/Kg i.p. on day 1): 150%; Toxic deaths (P388 ascitic leukemia; 0.68 mg/Kg i.p. on day 1): 1/10; MST (T/C %) (P388 ascitic leukemia; 0.68 mg/Kg i.p. on day 1): 155%
